Data from patent US5506213A, “Adminstration of 2'-halo-2'-deoxy adenosine to treat inflammatory bowel disease” (priority 1994, dated 1996).
Where two headings read alike, the source gives them in different places.

How the values were obtained:
multiple sclerosis = experiment: Treatment of chronic multiple sclerosis patients with CdA; format: in vivo, human
Experimental: A study of four patients with chronic multiple sclerosis was undertaken. Each patient was first examined for normal hepatic, renal, and bone marrow functioning to establish baseline values. Each of the patients was then treated with CdA dissolved in sterile preservative-free isotonic saline. The CdA was administered intravenously at a dosage of 0.1 mg/kg each day for a total of seven days. Each patient received six courses of intravenous therapy, once monthly for a total of six months. Patients were examined on a daily basis while hospitalized. During that time, daily blood counts and twice weekly blood chemistries were performed on each patient. CdA levels were also measured in blood and spinal fluid.
The neurologic function of each of these patients was measured using the expanded Krutzke disability status scale (EDSS), and the neurologic rating scale (NRS).

CEM, wild type = experiment: Direct comparative cytotoxicity assay (Table II), CEM wild type; format: cell-based, human; conditions: Homo sapiens, 120 h, read-out: ID50: concentration that produced 50 percent reduction in all numbers after five days
Excerpt: (§1) The two compounds, CdA and CAFdA, were also compared for in vitro activity against another group of human cell lines in a direct comparative assay.
(§2) ^1 Concentration that produced 50 percent reduction in all numbers
(§3) ^2 CEM cells are T lymphoblasts; DHL9 cells are lymphoblasts.

human monocytes = experiment: Cellular NAD, ATP and viability in human monocytes exposed to CdA; format: cell-based; conditions: CdA at 1 nM
Experimental: (§4) FIG. 5 is a graph showing the biochemical effects induced in human monocytes in vitro by exposure to […] CdA over a period of 16 hours. The effects of CdA exposure upon monocyte viability (open squares), NAD content (closed squares), RNA synthesis (open circles) and DNA strand breaks (ds-DNA; closed circles) are illustrated.
Cellular NAD content was measured in human monocytes following incubation in culture with CdA (1 nM). An alcohol dehydrogenase cycling assay as described in Jacobson and Jacobson (1976) Arch. Biochem. Biophys. 175:627-634 was used to measure NAD.
Monocytes, cultured and contacted as before described, were detached from the culture wells and were treated with perchloric acid (0.5M) for 10 minutes at 4 degrees C. The mixture was clarified and neutralized with KOH containing potassium phosphate buffer (0.33M) at pH 7.5.Monocyte ATP was quantitated in perchloric acid extracts by anion exchange HPLC, using a Whatman SAX column with an isocratic mobile phase consisting of KH2 PO4 (0.25M), KCl (0.5M) and acetonitrile (2 percent) at pH 3.6 following the procedures of Carson et al. (1980) Proc. Nat'l. Acad, Sci. USA, 77:6865-6869.
NAD^+ consumption for poly(ADP-ribose) synthesis is a known consequence of severe DNA damage in eukaryotic cells. […]

interleukin-1β (IL-1β) = experiment: Plasma IL-1beta in a rheumatoid arthritis patient, ELISA; format: in vivo, human; conditions: each last infusion day compared to pretreatment values; one patient; preliminary
Excerpt: Preliminary studies have also measured the concentration of interleukin-1β (IL-1β) in cryopreserved plasma samples from one of the rheumatoid arthritis patients. IL-1β is a lymphokine released by antigen-stimulated macrophages that promotes the formation of interleukin-2 in antigen-activated cytotoxic T cells. IL-2 promotes mitosis in activated cytotoxic T cells.
This patient received CdA, as before, in four treatments over a time period of almost 100 days. Each treatment was by 5-day continuous infusion.
IL-1β concentrations were measured using a commercially available ELISA kit (Cistron).

[1] = test system: DHL9, Increased ribonucleotide reduction; experiment: Direct comparative cytotoxicity assay (Table II), DHL9 increased ribonucleotide reduction; format: cell-based, human; conditions: Homo sapiens, 120 h, read-out: ID50: concentration that produced 50 percent reduction in all numbers after five days
Excerpt: as §1, §2, §3

normal human monocytes = experiment: In vitro cytotoxicity toward human monocytes (MTT reduction assay); format: cell-based; conditions: for IC50: Homo sapiens, Monocyte
Excerpt: The percentage of viable cells remaining after treatment (ordinate) is plotted against the concentration of CdA utilized (abscissa), on a linear scale.
Peripheral blood monocytes and lymphocytes were isolated by well known methods from normal subjects. […] The human fibroblast cell line GMO1380 was obtained originally from the NIGMS Human Genetic Mutant Cell Repository, Camden, N.J., and cultured under the same conditions as above. That cell line was from a normal fetal lung.
Meth., 65: 55-63. After culturing for up to five days, 3-(4,5-dimethylthiazol-2-yl)-2,5-diphenyl tetrazolium bromide (MTT) at 0.2 mg (40 μl) was admixed with each well and the incubation was continued for another 4 hours. The plates were then centrifuged at 1000×g for 10 minutes, and supernatants were carefully aspirated with a finely drawn pipette.
Acidified isopropanol (100 μl; using 0.04N HCl) was added to each well.
Viable cell numbers were determined using a Dynatech microplate spectrophotometer, measuring absorbance at a wavelength of 570 nanometers (nm), using a reference wavelength of 630 nm.

[2] = test system: CEM, Increased 5'-nucleoside; experiment: Direct comparative cytotoxicity assay (Table II), CEM increased 5'-nucleoside; format: cell-based, human; conditions: Homo sapiens, 120 h, read-out: ID50: concentration that produced 50 percent reduction in all numbers after five days
Excerpt: as §1, §2, §3

[3] = test system: RNA synthesis in monocytes; experiment: Monocyte RNA synthesis, 3H-uridine incorporation; format: cell-based, human; conditions: 1 nM CdA; detectable after the first hour of culture
Experimental: as §4
Monocyte RNA synthesis following CdA exposure was studied by measuring the incorporation of ^3 H-uridine. Monocytes were exposed to ^3 H-uridine (20 μCi/10^6 cells) during the final 1 hour of CdA (1 nM) exposure. Radioactivity measured was contained in trichloroacetic acid precipitates collected onto cellulose acetate filters and measured by liquid scintillation counting.

autoantibody production = experiment: 2-Chlorodeoxyadenosine in autohemolytic anemia patients; format: in vivo, human
Excerpt: Thus, the present invention provides a method for decreasing the number of circulating blood monocytes.

Q: For Nc1nc(Cl)nc2c1ncn2[C@H]1C[C@H](O)[C@@H](CO)O1 [CdA, 2-chloro-9,1'-beta-D-2'-deoxyribosyladenine], which “cerebrospinal fluid IgG oligoclonal bonds” value (multiple sclerosis; all cases) is on record?
A: Its value is “complete disappearance”.

Q: And the platelet counts (multiple sclerosis; all four patients)?
A: The platelet counts was “remained within the normal range”.

Q: And the macrocytosis (multiple sclerosis; all patients, lasting six to eight months after cessation of treatment)?
A: Its macrocytosis is “modest macrocytosis”.

Q: And the monocyte level (multiple sclerosis; another patient, after two treatments)?
A: Its monocyte level is “substantially absent”.

Q: What about the “neurologic function, EDSS and NRS scales” value (multiple sclerosis; during treatment with CdA) of the same compound?
A: The value was “evidence of improvement in all four patients”.

Q: What about the toxic side effects (multiple sclerosis; four patients, 0.1 mg/kg each day i.v. for seven days, six monthly courses) of the same compound?
A: Its toxic side effects is “no evidence of any significant toxic side effects”.

Q: And the “cerebrospinal fluid lymphocyte counts” value (multiple sclerosis; human, in vivo)?
A: The value was “marked drop”.

Q: And the “total CFS IgG” value (multiple sclerosis; human, in vivo)?
A: Its value is “no significant change”.

Q: What about the monocyte drop (multiple sclerosis; one patient, after the first treatment) of the same compound?
A: The monocyte drop was 40%.

Q: And the monocyte level (multiple sclerosis; same patient, after each of the remaining five treatments)?
A: Its monocyte level is “substantially absent”.

Q: And the IC50 (CEM, wild type)?
A: The IC50 was 21 nM.

Q: And the “exposure time at which decreases in ATP and cell viability were first evident” value (human monocytes)?
A: The value was 16 h.

Q: What about the “monocyte NAD content” value (human monocytes; first four hours of exposure) of the same compound?
A: The value was > 95% of control NAD.

Q: What about the “plasma IL-1β level” value (interleukin-1β (IL-1β)) of the same compound?
A: The value was “significantly lower”.

Q: What about the IC50 [1] of the same compound?
A: The IC50 was 4000 nM.

Q: What about the IC50 (normal human monocytes; 120 h, five days exposure (FIG. 2), read-out: CdA concentration at which 50 percent of the cultured monocytes were killed) of the same compound?
A: The IC50 was 20 nM.

Q: What about the IC50 (normal human monocytes; another study, freshly isolated monocytes, read-out: CdA concentration at which 50 percent of freshly isolated monocytes were killed) of the same compound?
A: Its IC50 is 22 nM.

Q: And the “monocyte sensitivity to CdA in the presence of deoxycytidine” value (normal human monocytes; deoxycytidine 100 μM)?
A: Its value is “substantially reduced”.

Q: And the IC50 [2]?
A: The IC50 was 60 nM.

Q: And the RNA synthesis [3]?
A: Its RNA synthesis is “progressive reduction in RNA synthesis”.

Q: What about the autoantibody production (autoantibody production) of the same compound?
A: Its autoantibody production is “significant decrease in autoantibody production”.

Q: And the hemolysis (autoantibody production)?
A: Its hemolysis is “reduction in hemolysis”.
